What was measured:
Format in all cases: physicochemical
[1] = Solubility of tested chemical in 40% AMS (ammonium sulfate)
Protocol: (§1) In example 1, the electrolyte tolerance of 6 chemicals with and without the presence of 2,4-D amine was evaluated in ammonium sulfate system.

[2] = Compatibility of 2,4-D DMA premix with 28% N fertilizer (phase diagram, coarse particle formation)
Protocol: FIG. 2 is a photograph illustrating the effect of cocoamine-2EO methylchloride on coarse particle formation of 2,4-D ammonium salt. (A) 90% 28% N; 1% 2,4-D DMA; and 9% DI water. (B) 90% 28% N; 1% 2,4-D DMA; 5.5% DI water; and 3.5% Coco 2EO quat.
However, if 10% pre-mixed (8:2 water: 2,4-D DMA-50% ai) is added to 90% 28% N, a hazy system with coarse particles (2,4-D NH4 salt) will form in a few minutes at room temperature.

[3] = System appearance and pH after adding chemicals into System A
Text: System appearance after adding various chemicals into “System A” which was 100 g of 3% 2,4-D DMA (50%)+90% water (1000 ppm)+7% Ammonium sulfate (40%).

[4] = Appearance of 10 g solution of (2.5 wt % ai 2,4-D DMA + tested chemical) after adding 40% AMS
Protocol: In this example, the appearance of a 10 g solution of (2.5 wt % ai 2,4-D DMA+tested chemical) was evaluated after adding 40% AMS

[5] = Electrolyte tolerance: 40% AMS added into 10 g 0.13% tested chemical in DI water
Protocol: as §1

[6] = Solubility of tested chemical in DI water
Protocol: as §1

[7] = added into 100 g System A, added wt 0.815 g Ethoquad, 0.079 g NH4OH, 0.091 g dimethylamine, 1.07 g NaOH
[8] = 0.13 wt % a.i. of tested chemical, 10 g solution, 2.5 wt % ai 2,4-D DMA
[9] = at 0 g AMS added, or at all additions (All)

Solubility of testes chemical in 40% AMS [1]: All clear
Spray solution obtained ([2]; 10% pre-mixed (8:2 Ethoquad C/12W-43.7%: 2,4-D DMA-50% ai) added to 90% 28% N): non-nozzle plugging spray solution
pH change of System A (in words) [3]: only changed slightly
Appearance [3, 7]: clear
pH [3, 7]: 5.2
Compatibility in 2,4-D amine and AMS solution (in words) [4]: very good compatibility agent
0 gram Appearance ([4]; 0.13 wt % a.i. of tested chemical, 2.5 wt % ai 2,4-D DMA, 0 gram 40% AMS): Clear
Addition Weight of 40% AMS: System was clear after adding [4, 8]: 2.21 grams
Addition Weight of 40% AMS: System was cloud after adding [4, 8]: 2.511 grams
Added 40% AMS wt into 10 g (2.5% 2,4-D + 0.13% tested chemical in DI water), hazy ([4]; Table of Example 1): 2.51 g hazy
Added 40% AMS wt into 10 g (2.5% 2,4-D + 0.13% tested chemical in DI water), still clear ([4]; Table of Example 1): 2.21 g
Appearance, added 40% AMS wt into 10 g (2.5% 2,4-D + 0.13% tested chemical in DI water) [4, 9]: clear
Solubility of tested chemical in DI Water [6]: All clear
Substance: Cocoamine-2EO methylchloride
Effect on formation of coarse particles of the 2,4-D ammonium salt ([2]; 28% N fertilizer, room temperature, FIG. 2): prevent or minimize the formation of coarse particles
Appearance, added 40% AMS wt into 10 g 0.13% tested chemical in DI water [5, 9]: All clear
Solubility / compatibility in water or AMS solution (in words) ([5]; without 2,4-D amine): excellent solubility in water and electrolyte tolerance
